Active and inactive are the calls of the source.
What was measured:
[1] = DRD fibroblast viability loss – cell-based, non-viral oncogenic, luminescence, dose response (AID 1934); assay type: functional; details: Homo sapiens
[2] = SNU-C1 cell viability reduction, dose response, CellTiter-Glo luminescence (AID 1117323); assay type: functional, cell-based
[3] = viability loss in HeLa cells – cytotoxicity control for MgcRacGAP inhibitor project, dose response (AID 624300); assay type: functional
[4] = target: T1, RNA-binding protein pos-1 (Caenorhabditis elegans, UniProt G5EF15); experiment: disruptors of C. elegans POS-1 RNA interaction – biochemical, fluorescence polarization, dose response (AID 1964);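 further: purified POS-1 fused to maltose binding protein made in E. coli; potency of compounds blocking POS-1 binding to fluorescent RNA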
T1 sequence (G5EF15 whole entry): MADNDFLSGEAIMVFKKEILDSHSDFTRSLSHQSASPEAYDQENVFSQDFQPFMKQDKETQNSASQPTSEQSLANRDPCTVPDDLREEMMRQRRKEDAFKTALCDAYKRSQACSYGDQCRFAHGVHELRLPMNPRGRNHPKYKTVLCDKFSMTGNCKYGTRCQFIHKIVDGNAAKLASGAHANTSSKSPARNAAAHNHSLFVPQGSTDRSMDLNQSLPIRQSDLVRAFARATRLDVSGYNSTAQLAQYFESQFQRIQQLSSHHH

[5] = target: T2, Apoptotic protease-activating factor 1 (Homo sapiens, UniProt O14727); assay type: functional
T2 sequence (O14727 whole entry): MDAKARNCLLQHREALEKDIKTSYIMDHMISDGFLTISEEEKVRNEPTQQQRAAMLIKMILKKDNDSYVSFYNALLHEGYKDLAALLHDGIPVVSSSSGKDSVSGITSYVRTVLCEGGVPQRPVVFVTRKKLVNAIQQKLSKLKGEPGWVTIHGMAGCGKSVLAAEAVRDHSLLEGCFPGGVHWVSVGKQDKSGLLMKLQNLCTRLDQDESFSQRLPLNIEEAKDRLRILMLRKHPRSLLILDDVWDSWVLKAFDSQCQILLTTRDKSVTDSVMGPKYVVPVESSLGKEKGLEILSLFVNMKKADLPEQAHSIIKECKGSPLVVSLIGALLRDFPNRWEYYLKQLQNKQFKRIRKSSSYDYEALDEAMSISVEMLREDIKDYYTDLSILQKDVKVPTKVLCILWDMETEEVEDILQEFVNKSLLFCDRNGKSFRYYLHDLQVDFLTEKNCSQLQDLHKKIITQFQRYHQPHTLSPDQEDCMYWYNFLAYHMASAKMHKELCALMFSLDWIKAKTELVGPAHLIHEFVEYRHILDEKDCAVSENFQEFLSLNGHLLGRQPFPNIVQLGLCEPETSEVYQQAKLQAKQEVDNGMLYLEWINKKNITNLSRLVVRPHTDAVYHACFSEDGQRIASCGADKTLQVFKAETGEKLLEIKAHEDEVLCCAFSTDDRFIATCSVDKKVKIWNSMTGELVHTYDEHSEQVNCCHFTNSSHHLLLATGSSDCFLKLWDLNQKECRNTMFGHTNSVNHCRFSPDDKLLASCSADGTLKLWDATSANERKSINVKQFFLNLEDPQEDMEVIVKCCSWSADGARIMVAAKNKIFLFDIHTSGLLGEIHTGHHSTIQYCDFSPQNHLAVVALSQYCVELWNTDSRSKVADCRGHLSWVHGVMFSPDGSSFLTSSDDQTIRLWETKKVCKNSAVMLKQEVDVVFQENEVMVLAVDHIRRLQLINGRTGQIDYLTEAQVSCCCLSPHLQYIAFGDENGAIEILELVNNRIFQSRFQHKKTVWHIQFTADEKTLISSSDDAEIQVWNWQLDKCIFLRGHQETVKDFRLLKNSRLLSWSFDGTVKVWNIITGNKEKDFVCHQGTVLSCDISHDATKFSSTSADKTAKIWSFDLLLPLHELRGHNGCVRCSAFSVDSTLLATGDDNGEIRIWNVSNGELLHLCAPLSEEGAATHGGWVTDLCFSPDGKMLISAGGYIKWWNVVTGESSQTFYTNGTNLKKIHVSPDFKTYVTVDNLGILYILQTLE

[6] = target: T3, Sentrin-specific protease 6 (Homo sapiens, UniProt Q9GZR1); assay type: functional;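 further: Luminescence-based dose-response confirmatory assay of SENP6 inhibition, following up an ultra-high-throughput screen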
T3 sequence (Q9GZR1 whole entry): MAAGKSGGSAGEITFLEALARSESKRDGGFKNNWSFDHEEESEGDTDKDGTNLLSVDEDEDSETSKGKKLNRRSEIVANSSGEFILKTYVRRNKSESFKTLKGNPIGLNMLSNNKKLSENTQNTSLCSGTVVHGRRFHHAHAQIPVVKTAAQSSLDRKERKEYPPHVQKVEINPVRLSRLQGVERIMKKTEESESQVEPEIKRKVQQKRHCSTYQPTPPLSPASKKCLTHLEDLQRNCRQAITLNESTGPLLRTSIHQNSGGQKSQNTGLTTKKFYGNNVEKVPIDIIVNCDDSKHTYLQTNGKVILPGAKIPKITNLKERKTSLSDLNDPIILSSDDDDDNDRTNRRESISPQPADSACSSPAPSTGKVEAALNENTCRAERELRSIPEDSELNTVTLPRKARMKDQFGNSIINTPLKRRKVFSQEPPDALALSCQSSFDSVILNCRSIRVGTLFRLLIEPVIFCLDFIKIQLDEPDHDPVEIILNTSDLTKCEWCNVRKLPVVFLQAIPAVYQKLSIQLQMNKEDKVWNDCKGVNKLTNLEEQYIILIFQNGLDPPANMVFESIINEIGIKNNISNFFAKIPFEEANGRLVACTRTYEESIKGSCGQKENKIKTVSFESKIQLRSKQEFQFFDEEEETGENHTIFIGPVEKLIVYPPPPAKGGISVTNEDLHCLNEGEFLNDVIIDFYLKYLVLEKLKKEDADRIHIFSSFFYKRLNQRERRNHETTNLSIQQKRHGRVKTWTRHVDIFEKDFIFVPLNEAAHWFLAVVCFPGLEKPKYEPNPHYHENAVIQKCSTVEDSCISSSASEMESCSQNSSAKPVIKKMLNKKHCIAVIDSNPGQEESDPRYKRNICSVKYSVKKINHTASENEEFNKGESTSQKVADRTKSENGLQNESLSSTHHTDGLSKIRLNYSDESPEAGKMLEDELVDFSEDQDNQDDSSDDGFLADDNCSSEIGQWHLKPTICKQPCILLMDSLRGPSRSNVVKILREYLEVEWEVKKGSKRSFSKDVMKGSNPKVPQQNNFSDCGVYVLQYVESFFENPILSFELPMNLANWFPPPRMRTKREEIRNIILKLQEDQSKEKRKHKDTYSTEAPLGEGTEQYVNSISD

Row | SMILES | EC50 [1] | IC50 [2] | CC50 [3] | EC50 [4] | IC50 [5] | IC50 [6]
1 | Cc1cc2nc3ccc(N(C)C)cc3[s+]c2cc1N [TOLONIUM CHLORIDE] | 8.46 µM (inconclusive) | 5.56 µM (inactive) | 25 µM (active) | > 300 µM (not active) | – | –
2 | CCCOc1cc2c(C#N)c(N3CCCC3)nc(N)c2c(N)n1 | – | – | – | – | 15 µM (active) | 3.96 µM (active)
3 | Oc1ccc(/C=N/Nc2cc(N3CCCC3)nc(N3CCCC3)n2)cc1O | – | – | – | – | 2.56 µM (active) | –

Reference: ChEMBL document CHEMBL1201862, “PubChem BioAssay data set” (2004)
